This note sets out measurements from ChEMBL document CHEMBL6153132 (J Med Chem, 2025).

The source made the active and inactive calls. Some results are limits rather than exact numbers.

One data set concerns A2780. The data set is described as follows: Cytotoxicity against human A2780 cells assessed as cell viability incubated for 72 hrs by MTS assay. The format is functional, cell-based. The conditions noted are these: A2780, 72 h. (Tetrazolium dyes change colour on reduction, which living cells bring about.)
A short description of data set [1]: Cytotoxicity against human Cal27CisR cells assessed as cell viability incubated for 72 hrs by MTS assay. Format: functional, cell-based.
The next data set has as its system A2780cisR. The data set is described as follows: Cytotoxicity against human A2780 cisR cells assessed as cell viability up to 100 uM incubated for 72 hrs by MTS assay. Format: functional, cell-based.
Data set [2] deals with CAL-27. The data set is described as follows: Cytotoxicity against human CAL-27 cells assessed as cell viability incubated for 72 hrs by MTS assay. Format: functional, cell-based. Particulars: CAL-27, 72 h.
For data set [3], the target named is T1, Protein deacetylase HDAC6 (Homo sapiens, UniProt Q9UBN7).
T1 sequence (Q9UBN7 whole entry): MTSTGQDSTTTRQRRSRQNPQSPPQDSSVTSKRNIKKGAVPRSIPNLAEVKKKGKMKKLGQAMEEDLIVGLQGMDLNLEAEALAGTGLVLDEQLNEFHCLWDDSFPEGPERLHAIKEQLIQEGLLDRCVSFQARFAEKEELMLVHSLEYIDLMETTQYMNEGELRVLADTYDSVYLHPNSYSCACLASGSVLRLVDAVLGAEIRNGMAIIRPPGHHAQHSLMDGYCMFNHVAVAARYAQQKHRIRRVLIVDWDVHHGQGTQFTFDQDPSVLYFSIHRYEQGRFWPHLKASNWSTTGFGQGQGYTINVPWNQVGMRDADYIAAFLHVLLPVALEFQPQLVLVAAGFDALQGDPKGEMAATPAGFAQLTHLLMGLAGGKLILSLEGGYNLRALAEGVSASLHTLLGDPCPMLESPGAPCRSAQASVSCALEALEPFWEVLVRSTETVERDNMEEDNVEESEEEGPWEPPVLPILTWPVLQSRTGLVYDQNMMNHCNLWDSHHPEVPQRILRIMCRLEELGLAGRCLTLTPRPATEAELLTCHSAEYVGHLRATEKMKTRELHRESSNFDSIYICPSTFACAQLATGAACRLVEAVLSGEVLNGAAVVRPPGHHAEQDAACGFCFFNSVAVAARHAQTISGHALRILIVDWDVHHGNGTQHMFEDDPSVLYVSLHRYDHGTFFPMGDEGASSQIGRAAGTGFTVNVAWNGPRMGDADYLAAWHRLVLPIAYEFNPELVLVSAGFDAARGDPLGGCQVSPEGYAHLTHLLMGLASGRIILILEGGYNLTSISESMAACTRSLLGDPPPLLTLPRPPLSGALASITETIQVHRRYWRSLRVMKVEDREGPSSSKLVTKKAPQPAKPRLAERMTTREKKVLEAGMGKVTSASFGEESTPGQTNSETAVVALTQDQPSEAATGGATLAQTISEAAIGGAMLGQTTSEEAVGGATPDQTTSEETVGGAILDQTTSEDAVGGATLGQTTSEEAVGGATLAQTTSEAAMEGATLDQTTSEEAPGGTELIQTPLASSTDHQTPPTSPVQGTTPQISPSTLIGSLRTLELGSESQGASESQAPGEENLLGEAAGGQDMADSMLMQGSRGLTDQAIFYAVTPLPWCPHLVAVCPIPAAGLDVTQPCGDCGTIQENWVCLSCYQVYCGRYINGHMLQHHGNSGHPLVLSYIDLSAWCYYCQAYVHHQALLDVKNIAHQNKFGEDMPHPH
The data set is described as follows: Inhibition of human HDAC6 using ZMAL(Z-Lys(Ac)-AMC as substrate preincubated for 15 mins followed by substrate addition and measured after 90 mins by microplate reader analysis.

A further data set can be described thus: cells. The conditions noted are these: Homo sapiens, Cal27CisR, 72 h.
Data set [4] has as its system CAL-27. The data set is described as follows: cells. Particulars: Homo sapiens, CAL-27, 72 h.
Data set [5] relates to Plasmodium falciparum. The data set is described as follows: microbe, parasite or virus in culture. The conditions noted are these: Dd2, 72 h.
For data set [6], the system named is Plasmodium falciparum. The data set is described as follows: microbe, parasite or virus in culture. Particulars: 3D7, 72 h.
In the next data set the target is Histone deacetylase 1 (Homo sapiens, UniProt Q13547). The data set is described as follows: Inhibition of human HDAC1 using ZMAL(Z-Lys(Ac)-AMC as substrate preincubated for 60 mins followed by substrate addition and measured after 90 mins by microplate reader analysis.
A further data set deals with Histone deacetylase 3 (Homo sapiens, UniProt O15379). The data set is described as follows: Inhibition of human HDAC3 using ZMAL(Z-Lys(Ac)-AMC as substrate preincubated for 60 mins followed by substrate addition and measured after 90 mins by microplate reader analysis.
Data set [7] can be described thus: Metabolic stability in human liver microsome assessed as intrinsic clearance. Particulars: microsomes. Format: ADME. (In general: Microsomes from liver hold many membrane-bound enzymes, among them those of drug oxidation.)
Data set [8] can be described thus: Metabolic stability in human liver microsome assessed as half life. Format: ADME, microsomes.

The term IC50 denotes the concentration at which inhibition is half-maximal. By half-life is commonly meant the time needed for the level to fall by half in the phase considered.

Sequence of Histone deacetylase 3 (O15379 whole entry): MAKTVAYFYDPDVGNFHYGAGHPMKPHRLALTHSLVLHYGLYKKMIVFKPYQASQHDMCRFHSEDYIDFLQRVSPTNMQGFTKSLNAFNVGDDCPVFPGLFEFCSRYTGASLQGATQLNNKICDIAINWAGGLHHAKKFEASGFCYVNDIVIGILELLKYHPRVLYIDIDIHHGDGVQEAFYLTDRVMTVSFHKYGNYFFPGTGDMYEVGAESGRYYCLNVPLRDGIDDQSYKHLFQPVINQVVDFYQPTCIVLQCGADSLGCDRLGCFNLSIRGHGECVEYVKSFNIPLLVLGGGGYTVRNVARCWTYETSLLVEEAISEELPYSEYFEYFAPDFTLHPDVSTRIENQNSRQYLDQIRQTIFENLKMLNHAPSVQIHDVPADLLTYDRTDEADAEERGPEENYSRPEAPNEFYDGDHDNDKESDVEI
Sequence of Histone deacetylase 1 (Q13547 whole entry): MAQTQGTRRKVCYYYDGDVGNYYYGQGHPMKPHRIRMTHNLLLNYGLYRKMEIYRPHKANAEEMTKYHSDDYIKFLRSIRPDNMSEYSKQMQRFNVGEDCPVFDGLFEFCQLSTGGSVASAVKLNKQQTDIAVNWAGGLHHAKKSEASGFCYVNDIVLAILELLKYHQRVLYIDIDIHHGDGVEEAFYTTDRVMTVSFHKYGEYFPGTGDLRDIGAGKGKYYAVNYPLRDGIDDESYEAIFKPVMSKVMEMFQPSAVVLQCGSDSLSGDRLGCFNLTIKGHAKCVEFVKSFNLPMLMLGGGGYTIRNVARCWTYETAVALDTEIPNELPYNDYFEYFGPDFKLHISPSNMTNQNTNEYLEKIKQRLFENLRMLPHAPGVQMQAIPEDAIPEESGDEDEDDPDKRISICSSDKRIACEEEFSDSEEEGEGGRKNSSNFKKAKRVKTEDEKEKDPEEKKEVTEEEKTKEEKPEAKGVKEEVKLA

On to `Nc1cc(F)ccc1NC(=O)/C=C/c1cnn(C/C=C/c2ccccc2)c1`, for which the IC50 with A2780 was found to be 12.9 µM; in [1], 49.4 µM; with CAL-27 [2], 43.1 µM. Further, the result with A2780cisR was inactive.
Regarding `CN(C)c1ccc(C(=O)N(CC(=O)NCc2ccccc2)Cc2ccc(C(=O)NCCSSCCNC(=O)c3ccc(CN(CC(=O)NCc4ccccc4)C(=O)c4ccc(N(C)C)cc4)cc3)cc2)cc1`, the IC50 in data set [3] was greater than 10 µM; in the data set “cells” it was greater than 100 µM; in the data set on CAL-27 [4], greater than 100 µM; with Plasmodium falciparum [5] it was greater than 100 µM; in the data set with Plasmodium falciparum [6] it was greater than 100 µM; on Histone deacetylase 1, 4.54 µM.
`CNC(=O)CCCCCN(CC(=O)NCc1ccccc1)C(=O)c1ccc(N(C)C)cc1`: the IC50 in data set [3] is greater than 10 µM; in “cells” it was greater than 100 µM; with CAL-27 [4], greater than 100 µM; with Plasmodium falciparum [5] it was greater than 100 µM; in the data set with Plasmodium falciparum [6] it was greater than 100 µM; against Histone deacetylase 1, greater than 10 µM.
`CSc1ccccc1C(=O)Nc1ccc(CN(CC(=O)NCc2ccccc2)C(=O)c2ccc(N(C)C)cc2)cc1`: the IC50 in [3] is greater than 10 µM; against Histone deacetylase 3 it was greater than 10 µM; in “cells”, greater than 100 µM; in the data set with CAL-27 [4], greater than 100 µM; in the data set with Plasmodium falciparum [6], greater than 100 µM; against Histone deacetylase 1, greater than 10 µM.
As for `CC(=O)SCC(=O)Nc1ccc(CN(CC(=O)NCc2ccccc2)C(=O)c2ccc(N(C)C)cc2)cc1`, the IC50 in the data set “cells”, with CAL-27 [4], in the data set on Plasmodium falciparum [5] and in the data set on Plasmodium falciparum [6] was greater than 100 µM each time.
Regarding `CN(C)c1ccc(C(=O)N(CCCCCCNC(=O)c2ccccc2O)CC(=O)NCc2ccccc2)cc1`, the figures for the half-maximal inhibitory concentration (IC50) (in [3]; in “cells”; at Histone deacetylase 1) were greater than 10 µM, greater than 100 µM and greater than 10 µM, respectively.
Turning to `CN(C)c1ccc(C(=O)N(CC(=O)NCc2ccccc2)Cc2ccc(-c3nnc(C(F)(F)F)o3)cc2)cc1`, the IC50 in data set [3] is greater than 10 µM; in “cells”, greater than 100 µM; in the data set with CAL-27 [4], greater than 100 µM; in the data set on Plasmodium falciparum [5] it was 36.8 µM; in the data set with Plasmodium falciparum [6], 34.2 µM; against Histone deacetylase 1 it was greater than 10 µM.
In the case of `CSc1ccccc1C(=O)NCCCCCN(CC(=O)NCc1ccccc1)C(=O)c1ccc(N(C)C)cc1`, the IC50 in [3] is greater than 10 µM; against Histone deacetylase 3, greater than 10 µM; in “cells”, 55 µM; in the data set with CAL-27 [4], 63.7 µM; with Plasmodium falciparum [5] it was 37.6 µM; at Histone deacetylase 1 it was greater than 10 µM.
Take `CCCNNC(=O)c1ccc(CN(CC(=O)NCc2ccccc2)C(=O)c2ccc(N(C)C)cc2)cc1`: the CLH in data set [7] is 92.2 µL/min/mg. Also, in [8] (microsomes), the t1/2 came to 15.04 min.
`CC(=O)SCC(=O)NCCCCCCN(CC(=O)NCc1ccccc1)C(=O)c1ccc(N(C)C)cc1`: the IC50 was 28.8 µM in the data set “cells”, 33.4 µM with CAL-27 [4], 85.1 µM in the data set on Plasmodium falciparum [5] and greater than 100 µM in the data set on Plasmodium falciparum [6].
In the case of `CN(C)c1ccc(C(=O)N(CC(=O)NCc2ccccc2)Cc2ccc(C(=O)Nc3ccccc3N)cc2)cc1`, the CLH in [7] was 79.4 µL/min/mg. Also, the half-life in data set [8] (liver microsomes) is 17.5 min.
With `CSc1ccccc1C(=O)NCCCCCCN(CC(=O)NCc1ccccc1)C(=O)c1ccc(N(C)C)cc1`, the IC50 in [3] is greater than 10 µM; against Histone deacetylase 3, greater than 10 µM; in “cells”, 65.6 µM; in the data set on CAL-27 [4] it was 68.9 µM; in the data set on Plasmodium falciparum [5], 6.66 µM; with Plasmodium falciparum [6], 8.97 µM. The compound also showed an IC50 on Histone deacetylase 1 greater than 10 µM.
Turning to `CN(C)c1ccc(C(=O)N(CCCCCC(=O)NCCSSCCNC(=O)CCCCCN(CC(=O)NCc2ccccc2)C(=O)c2ccc(N(C)C)cc2)CC(=O)NCc2ccccc2)cc1`, the IC50 in data set [3] is greater than 10 µM; in “cells”, greater than 100 µM; in the data set with CAL-27 [4] it was 98.7 µM; in the data set with Plasmodium falciparum [5] it was greater than 100 µM; in the data set with Plasmodium falciparum [6], 11.7 µM; at Histone deacetylase 1 it was 7.1 µM.
Take `CSc1ccccc1C(=O)NCCCCCCCN(CC(=O)NCc1ccccc1)C(=O)c1ccc(N(C)C)cc1`: the IC50 was greater than 10 µM in data set [3]; greater than 10 µM against Histone deacetylase 3; greater than 100 µM in the data set “cells”; 70.9 µM in the data set with CAL-27 [4]; 23 µM with Plasmodium falciparum [5]; 34.9 µM in the data set on Plasmodium falciparum [6]. The compound further had an IC50 on Histone deacetylase 1 greater than 10 µM.
Regarding `CN(C)c1ccc(C(=O)N(CC(=O)NCc2ccccc2)Cc2ccc(C(=O)O)cc2)cc1`, the IC50 was greater than 10 µM in [3]; greater than 100 µM in the data set “cells”; 74.3 µM in the data set on CAL-27 [4]; greater than 100 µM in the data set with Plasmodium falciparum [5]; greater than 100 µM in the data set on Plasmodium falciparum [6]; 13.8 µM against Histone deacetylase 1.
Regarding `CN(C)c1ccc(C(=O)N(CC(=O)NCc2ccccc2)Cc2ccc(-c3nnc(C(F)F)o3)cc2)cc1`, the IC50 in [3] was greater than 10 µM; in the data set “cells” it was greater than 100 µM; in the data set on CAL-27 [4] it was greater than 100 µM; in the data set on Plasmodium falciparum [5], 23.7 µM; in the data set on Plasmodium falciparum [6] it was 18.1 µM; against Histone deacetylase 1, greater than 10 µM.
For the compound `CN(C)c1ccc(C(=O)N(CCCCCC(=O)O)CC(=O)NCc2ccccc2)cc1`, the IC50 in data set [3] is greater than 10 µM; in “cells”, greater than 100 µM; in the data set on CAL-27 [4], greater than 100 µM; in the data set on Plasmodium falciparum [5], greater than 100 µM; in the data set with Plasmodium falciparum [6] it was greater than 100 µM; on Histone deacetylase 1, greater than 10 µM.
In the case of `CSc1ccccc1NC(=O)CCCCCN(CC(=O)NCc1ccccc1)C(=O)c1ccc(N(C)C)cc1`, the IC50 is greater than 10 µM in [3]; greater than 10 µM on Histone deacetylase 3; 61.3 µM in “cells”; 79.4 µM in the data set with CAL-27 [4]; 28.7 µM with Plasmodium falciparum [5]; 56.9 µM in the data set on Plasmodium falciparum [6]. For the same compound, at Histone deacetylase 1, the IC50 was greater than 10 µM.
